From patent US20250295799A1, “ANTIBODY-DRUG CONJUGATES TARGETING GLYPICAN-3 AND METHODS OF USE” (Zymeworks BC Inc., priority 2022, published 2025)

Tests used:
[1] = test system: JHH-5 cells (mid GPC3-expressing); assay: Internalization by flow cytometry (quenched AF488); format: cell-based; details: 5 nM, 24 h
Procedure: Cells were seeded at 50,000 cells/well in 48-well plates and incubated overnight under standard culturing conditions (37° C./5% CO2) Gibco™ William's E Medium, GlutaMAX™ Supplement (Thermo Fisher Scientific, Waltham, MA; Cat. No. 32551020) with 10% FBS (Thermo Fisher Scientific, Waltham, MA; Cat. No. 12483020). Coupled antibodies were added to cells the following day at 5 nM and incubated under standard culturing conditions for 24 hours to allow for internalization. Following incubation, cells were dissociated, washed, and surface AF488 fluorescence was quenched using an anti-AF488 antibody (Life Technologies, Carlsbad, CA; Cat. No. A-11094) at 100 nM for 30 minutes at 4° C. Quenched AF488 fluorescence (internalized fluorescence) was detected by flow cytometry on a BD LSRFortessa™ Cell Analyzer (BD Biosciences, Franklin Lake, NJ) with 1,000 minimum events collected per well.
Briefly, plasma stress was carried out by incubating M3-H18L6 LC-modified antibodies in mouse plasma (BioIVT, Westbury, NY; Cat. No. MSE00PL38NC-0103070) for 14 days in a 37° C./5% CO2 incubator. […] Following incubation and washing, fluorescence was detected by flow cytometry on a BD LSRFortessa™ Cell Analyzer (BD Biosciences, Franklin Lake, NJ) with 1,000 minimum events collected per well. […]

[2] = test system: GFP-transfected CHO cells; assay: Binding to transfected CHO-S cells by flow cytometry (negative transfection control)
Procedure: Briefly, CHO—S cells were transiently transfected for −24 hours with a pTT5-based expression plasmid encoding human GPC3 or cynomolgus monkey GPC3, 0.5 μg DNA per 1 million cells, using the Neon™ Transfection System (Thermo Fisher Scientific Corp., Waltham, MA), to transiently express human or cynomolgus monkey GPC3. Cells transfected with GFP were used as negative transfection controls. Following transfection, cells were seeded at 50,000 cells/well in V-bottom 96-well plates and treated with antibody for 24 hours at 4° C. to prevent internalization. […] Following incubation and washing, fluorescence was detected by flow cytometry on a BD LSRFortessa™ Cell Analyzer (BD Biosciences, Franklin Lake, NJ) with 1,000 minimum events collected per well. AF647/APC-A GeoMean (fluorescence signal geometric mean, proportional to anti-Human AF647 binding) in live cell population was plotted against antibody concentration using GraphPad Prism Version 9 (GraphPad Software, San Diego, CA). The Bmax and Kd values were derived from the “Specific binding with Hill slope” nonlinear regression curve fit in GraphPad Prism Version 9.

[3] = target: T1, human GPC3 on transfected CHO-S cells (Homo sapiens, UniProt P51654); assay: Binding to transfected CHO-S cells by flow cytometry; details: 24 h at 4 °C
T1 construct: expressed in transfected cells; host or cells: CHO-S cells, transient transfection (Neon system)
Procedure: (§1) Following transfection, cells were seeded at 50,000 cells/well in V-bottom 96-well plates and treated with antibody for 24 hours at 4° C. to prevent internalization. […] Following incubation and washing, fluorescence was detected by flow cytometry on a BD LSRFortessa™ Cell Analyzer (BD Biosciences, Franklin Lake, NJ) with 1,000 minimum events collected per well.
as §1

JHH-7 cells (GPC3-high) = assay: On-cell binding by flow cytometry; details: flow cytometry
Procedure: (§2) Briefly, cells were seeded at 50,000 cells/well in V-bottom 96-well plates and treated with antibody for 24 hours at 4° C. to prevent internalization. […] Following incubation and washing, fluorescence was detected by flow cytometry on a BD LSRFortessa™ Cell Analyzer (BD Biosciences, Franklin Lake, NJ) with 1,000 minimum events collected per well. AF647/APC-A GeoMean (fluorescence signal geometric mean, proportional to anti-Human AF647 binding) in live cell population was plotted against antibody concentration using GraphPad Prism Version 9 (GraphPad Software, San Diego, CA). The Bmax, Curve Hill Slope (h) and Kd values were derived from the “Specific binding with Hill slope” nonlinear regression curve fit in GraphPad Prism Version 9.
(§3) The on-cell binding capabilities of light chain (LC)-modified M3-H18L6 antibody constructs were assessed on JHH-7 (hepatocellular carcinoma; GPC3-high) and JHH-5 (hepatocellular carcinoma; GPC3-mid) by flow cytometry as described below. […] The assay was carried out as described in Example 13.
(§4) Briefly, plasma stress was carried out by incubating M3-H18L6 LC-modified antibodies in mouse plasma (BioIVT, Westbury, NY; Cat. No. MSE00PL38NC-0103070) for 14 days in a 37° C./5% CO2 incubator. […] Following incubation and washing, fluorescence was detected by flow cytometry on a BD LSRFortessa™ Cell Analyzer (BD Biosciences, Franklin Lake, NJ) with 1,000 minimum events collected per well. AF647/APC-A GeoMean (fluorescence signal geometric mean, proportional to anti-Human AF647 binding) in live cell population was plotted against antibody concentration using GraphPad Prism Version 9 (GraphPad Software, San Diego, CA). […] Following incubation, cells were dissociated, washed, and surface AF488 fluorescence was quenched using an anti-AF488 antibody (Life Technologies, Carlsbad, CA; Cat. No. A-11094) at 100 nM for 30 minutes at 4° C. Quenched AF488 fluorescence (internalized fluorescence) was detected by flow cytometry on a BD LSRFortessa™ Cell Analyzer (BD Biosciences, Franklin Lake, NJ) with 1,000 minimum events collected per well.

JHH-5 cells (GPC3-mid) = assay: On-cell binding by flow cytometry
Procedure: as §2, §3, §4

palivizumab was tested. Which “internalization, in words” value [1] did it give?
Its value is “minimal internalization”.

What about the “binding to GFP-transfected CHO cells, in words” value [2] of the same substance?
Its value is “did not exhibit any binding”.

And the “binding to CHO-S cells expressing human GPC3, in words” value [3]?
The value was “did not exhibit any binding”.

And the “binding to JHH-7 cells, in words” value (JHH-7 cells (GPC3-high))?
Its value is “did not exhibit any binding”.

And the “binding to JHH-5 cells, in words” value (JHH-5 cells (GPC3-mid))?
The value was “did not exhibit any binding”.
